One data set concerns the target T1, MATE1 (Homo sapiens, UniProt Q96FL8).
T1 sequence (Q96FL8 whole entry): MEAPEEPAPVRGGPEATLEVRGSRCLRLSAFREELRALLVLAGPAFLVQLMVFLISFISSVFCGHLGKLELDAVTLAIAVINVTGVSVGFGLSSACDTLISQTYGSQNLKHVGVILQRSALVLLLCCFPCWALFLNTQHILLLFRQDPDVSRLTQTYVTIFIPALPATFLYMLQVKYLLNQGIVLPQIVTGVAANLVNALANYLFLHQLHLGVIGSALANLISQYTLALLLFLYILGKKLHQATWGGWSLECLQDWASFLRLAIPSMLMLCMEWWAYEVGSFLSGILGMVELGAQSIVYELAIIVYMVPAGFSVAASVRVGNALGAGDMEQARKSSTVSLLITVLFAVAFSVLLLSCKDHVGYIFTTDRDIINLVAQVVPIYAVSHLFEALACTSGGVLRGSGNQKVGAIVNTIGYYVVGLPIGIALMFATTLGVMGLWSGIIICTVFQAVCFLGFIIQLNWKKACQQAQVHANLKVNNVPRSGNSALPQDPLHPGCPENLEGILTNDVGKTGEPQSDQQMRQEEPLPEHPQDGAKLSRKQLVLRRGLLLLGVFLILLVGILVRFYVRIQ
Nature of the data set: in vitro.

In another data set the target is T2, MATE2-K (Homo sapiens, UniProt Q86VL8).
T2 sequence (Q86VL8 whole entry): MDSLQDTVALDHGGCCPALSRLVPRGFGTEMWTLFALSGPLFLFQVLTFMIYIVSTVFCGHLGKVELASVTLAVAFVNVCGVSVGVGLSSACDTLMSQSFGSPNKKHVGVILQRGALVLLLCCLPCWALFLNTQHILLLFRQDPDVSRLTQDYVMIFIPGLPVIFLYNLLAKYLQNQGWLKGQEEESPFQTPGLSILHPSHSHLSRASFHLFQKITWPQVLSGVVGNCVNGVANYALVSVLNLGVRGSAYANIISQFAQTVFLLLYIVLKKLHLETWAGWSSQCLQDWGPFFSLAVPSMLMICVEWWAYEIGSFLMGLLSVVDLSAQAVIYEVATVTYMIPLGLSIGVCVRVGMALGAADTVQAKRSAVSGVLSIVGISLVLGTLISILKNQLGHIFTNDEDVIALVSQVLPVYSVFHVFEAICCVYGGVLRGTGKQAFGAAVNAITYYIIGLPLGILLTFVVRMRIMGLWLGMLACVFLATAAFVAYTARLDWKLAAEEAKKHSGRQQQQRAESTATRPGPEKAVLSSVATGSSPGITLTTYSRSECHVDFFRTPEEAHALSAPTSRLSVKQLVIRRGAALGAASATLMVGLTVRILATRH
The data set can be described thus: in vitro.

Setting [1] is: HEK293 cells expressing MATE2-K.

For `COc1ccc(CCN)cc1`, the uptake ratio at 1 min, 2.5 µM on MATE1 (HEK293 cells expressing MATE1) and at MATE2-K (setting [1]) was under 2 each time.

In the case of `COc1cc(CCN)ccc1O`, the uptake ratio at 1 min, 2.5 µM at MATE1 (HEK293 cells expressing MATE1) is over 2; on MATE2-K (setting [1]), under 2.

Regarding `OC(c1ccccc1)(c1ccccc1)C12CC[N+](CCOCc3ccccc3)(CC1)CC2`, the figures for the uptake ratio at 1 min, 2.5 µM at MATE1 (HEK293 cells expressing MATE1) and at MATE2-K (setting [1]) were over 2 and under 2, respectively. The corresponding values for `NCCCCCN` are under 2 and under 2. The matching figures for `O=C(O[C@H]1C[N+]2(CCCOc3ccccc3)CCC1CC2)C(O)(c1cccs1)c1cccs1`: over 2 and under 2. As for `COc1cc2c(cc1OC)-c1cc3ccc4c(c3c[n+]1CC2)OCO4`, the uptake ratio at 1 min, 2.5 µM at MATE1 (HEK293 cells expressing MATE1) and at MATE2-K (setting [1]) was over 2 throughout. For `C[C@@H]1O[C@@]2(CS1)CN1CCC2CC1`, the uptake ratio at 1 min, 2.5 µM on MATE1 (HEK293 cells expressing MATE1) and on MATE2-K (setting [1]) was under 2 in each case. Turning to `COC(=O)[C@@H]1[C@H]2CC[C@@H](C[C@@H]1O)N2C`, the uptake ratio at 1 min, 2.5 µM at MATE1 (HEK293 cells expressing MATE1) and on MATE2-K (setting [1]) was under 2 in each case.

With `CNS(=O)(=O)CCc1ccc2[nH]cc(C3CCN(C)CC3)c2c1`, the uptake ratio at 1 min, 2.5 µM on MATE1 (HEK293 cells expressing MATE1) and on MATE2-K (setting [1]) was over 2 each time. Consider `CC[C@@H](C(N)=O)N1CCCC1=O`, for which the uptake ratio at 1 min, 2.5 µM at MATE1 (HEK293 cells expressing MATE1) and on MATE2-K (setting [1]) was under 2 each time.

As to `CNC(C)Cc1ccc(OC)cc1` (configuration not stated), the uptake ratio at 1 min, 2.5 µM at MATE1 (HEK293 cells expressing MATE1) and at MATE2-K (setting [1]) was under 2 each time. Consider `NCCc1cccc(O)c1`, for which the uptake ratio at 1 min, 2.5 µM was over 2 on MATE1 (HEK293 cells expressing MATE1) and under 2 on MATE2-K (setting [1]).

As to `COc1ccc(CCN)cc1O`, the uptake ratio at 1 min, 2.5 µM at MATE1 (HEK293 cells expressing MATE1) is over 2; on MATE2-K (setting [1]), under 2. The corresponding values for `CN1CCC[C@@H]1Cc1c[nH]c2ccc(CCS(=O)(=O)c3ccccc3)cc12` are under 2 and under 2.

Consider `C[N+]1(CCC(C(N)=O)(c2ccccc2)c2ccccc2)CCCCC1`, for which the values for the uptake ratio at 1 min, 2.5 µM on MATE1 (HEK293 cells expressing MATE1) and on MATE2-K (setting [1]) were over 2 and under 2, respectively. The matching figures for `COc1ccc2[nH]c3c(c2c1)CCNC3`: under 2 and under 2. As to `CCC(Cc1ccc2c(c1)OCO2)NC` (configuration not stated), the uptake ratio at 1 min, 2.5 µM on MATE1 (HEK293 cells expressing MATE1) and on MATE2-K (setting [1]) was under 2 in each case. Regarding `CNCCc1c[nH]c2ccc(O)cc12`, the uptake ratio at 1 min, 2.5 µM at MATE1 (HEK293 cells expressing MATE1) and on MATE2-K (setting [1]) was over 2 each time. Regarding `C1CCN2C[C@H]3C[C@H](CN4CCCC[C@@H]34)[C@H]2C1`, the uptake ratio at 1 min, 2.5 µM at MATE1 (HEK293 cells expressing MATE1) and at MATE2-K (setting [1]) was over 2 throughout.

Consider `N=C(N)NCCC[C@H](NC(=O)c1ccc2ccccc2c1O)C(=O)N1CCC[C@H]1C(N)=O`, for which the uptake ratio at 1 min, 2.5 µM on MATE1 (HEK293 cells expressing MATE1) is over 2; at MATE2-K (setting [1]), under 2. With `CN(C)C(=N)NCCC[C@H](N)C(=O)O`, the uptake ratio at 1 min, 2.5 µM at MATE1 (HEK293 cells expressing MATE1) and at MATE2-K (setting [1]) was under 2 each time. As for `CNCCc1ccccc1`, the uptake ratio at 1 min, 2.5 µM on MATE1 (HEK293 cells expressing MATE1) and on MATE2-K (setting [1]) was under 2 in each case. For `CNCCc1ccc(O)cc1`, the figures for the uptake ratio at 1 min, 2.5 µM at MATE1 (HEK293 cells expressing MATE1) and on MATE2-K (setting [1]) were over 2 and under 2, respectively. The corresponding values for `Cc1cc(O)cc(C)c1OCC(C)N` (configuration not stated) are under 2 and under 2. The corresponding values for `CNCc1ccc(CSCCN/C(=C/[N+](=O)[O-])NC)o1` are over 2 and over 2. The matching figures for `Cc1ncc(C[n+]2cccc(CCO)c2C)c(N)n1`: over 2 and over 2. For `COc1ccc2[nH]cc(C[C@H](N)C(=O)O)c2c1`, the uptake ratio at 1 min, 2.5 µM on MATE1 (HEK293 cells expressing MATE1) and on MATE2-K (setting [1]) was under 2 throughout. Take `CNCC(O)c1ccc(O)cc1` (configuration not stated): the values for the uptake ratio at 1 min, 2.5 µM on MATE1 (HEK293 cells expressing MATE1) and at MATE2-K (setting [1]) were over 2 and under 2, respectively. The corresponding values for `C[N+]12CCC(CC1)C(OC(=O)C(O)(c1ccccc1)c1ccccc1)C2` (configuration not stated) are over 2 and under 2.

With `C[C@H](NCCc1ccc(O)cc1)[C@H](O)c1ccc(O)cc1`, the uptake ratio at 1 min, 2.5 µM at MATE1 (hek293) and on MATE2-K (hek293) was over 2 throughout. With `C[C@@H]1Cc2c(Cl)cc(C(=O)N[C@@H](Cc3ccccc3)C(=O)O)c(O)c2C(=O)O1` [3R14S-OCHRATOXIN A], the figures for the uptake ratio at 1 min, 2.5 µM on MATE1 (HEK293 cells expressing MATE1) and at MATE2-K (setting [1]) were over 2 and under 2, respectively. Regarding `N=C(N)NC(=N)Nc1ccc(Cl)cc1` [4-CHLOROPHENYLBIGUANIDE], the uptake ratio at 1 min, 2.5 µM on MATE1 (HEK293 cells expressing MATE1) and on MATE2-K (setting [1]) was over 2 in each case. For the compound `CCCC(=O)Nc1ccc(OCC(O)CNC(C)C)c(C(C)=O)c1` (configuration not stated) [ACEBUTOLOL], the uptake ratio at 1 min, 2.5 µM at MATE1 (hek293) and at MATE2-K (hek293) was over 2 in each case. Consider `N=C(N)NCCCCN` [AGMATINE], for which the uptake ratio at 1 min, 2.5 µM on MATE1 (HEK293 cells expressing MATE1) and at MATE2-K (setting [1]) was under 2 throughout. Turning to `C=CCN1CCCC1CNC(=O)c1cc2[nH]nnc2cc1OC` (configuration not stated) [ALIZAPRIDE], the uptake ratio at 1 min, 2.5 µM on MATE1 (HEK293 cells expressing MATE1) and on MATE2-K (setting [1]) was over 2 in each case. Turning to `CN(C)CCc1c[nH]c2ccc(CS(=O)(=O)N3CCCC3)cc12` [ALMOTRIPTAN], the uptake ratio at 1 min, 2.5 µM on MATE1 (HEK293 cells expressing MATE1) and at MATE2-K (setting [1]) was over 2 in each case. As to `Nc1ccncc1N` [AMIFAMPRIDINE], the uptake ratio at 1 min, 2.5 µM on MATE1 (HEK293 cells expressing MATE1) and at MATE2-K (setting [1]) was over 2 in each case.

In the case of `NC(N)=NCCCCN=C(N)N` [ARCAINE], the uptake ratio at 1 min, 2.5 µM on MATE1 (HEK293 cells expressing MATE1) and on MATE2-K (setting [1]) was over 2 in each case. In the case of `O=C1CCc2ccc(OCCCCN3CCN(c4cccc(Cl)c4Cl)CC3)cc2N1` [ARIPIPRAZOLE], the uptake ratio at 1 min, 2.5 µM at MATE1 (hek293) and on MATE2-K (hek293) was under 2 each time. `CC(=O)c1cc2cccc(OCC(O)CNC(C)C)c2o1` (configuration not stated) [BEFUNOLOL]: the uptake ratio at 1 min, 2.5 µM on MATE1 (HEK293 cells expressing MATE1) and at MATE2-K (setting [1]) was under 2 each time.

`CNCCc1ccccn1` [BETAHISTINE]: the uptake ratio at 1 min, 2.5 µM on MATE1 (hek293) and at MATE2-K (hek293) was under 2 throughout. Turning to `CC(C)NCC(O)COc1ccc(CCOCC2CC2)cc1` (configuration not stated) [BETAXOLOL], the uptake ratio at 1 min, 2.5 µM at MATE1 (hek293) and on MATE2-K (hek293) was under 2 in each case. Take `CCCCNC(=N)NC(=N)N` [BUFORMIN]: the uptake ratio at 1 min, 2.5 µM on MATE1 (hek293) and at MATE2-K (hek293) was over 2 throughout.

Regarding `O=C1CC2(CCCC2)CC(=O)N1CCCCN1CCN(c2ncccn2)CC1` [BUSPIRONE], the figures for the uptake ratio at 1 min, 2.5 µM on MATE1 (hek293) and on MATE2-K (hek293) were over 2 and under 2, respectively.

Consider `CCCC[N+]1(C)[C@@H]2C[C@@H](OC(=O)[C@H](CO)c3ccccc3)C[C@H]1[C@@H]1O[C@@H]12` (some centres not stated) [BUTYLSCOPOLAMINE], for which the results for the uptake ratio at 1 min, 2.5 µM at MATE1 (HEK293 cells expressing MATE1) and on MATE2-K (setting [1]) were over 2 and under 2, respectively. The matching figures for `CCN(CC)C(=O)Nc1ccc(OCC(O)CNC(C)(C)C)c(C(C)=O)c1` (configuration not stated) [CELIPROLOL]: over 2 and over 2. Take `CN(C)CCCN1c2ccccc2Sc2ccc(Cl)cc21` [CHLORPROMAZINE]: the uptake ratio at 1 min, 2.5 µM at MATE1 (hek293) and on MATE2-K (hek293) was under 2 each time. Consider `C[N+](C)(C)CCO` [CHOLINE], for which the uptake ratio at 1 min, 2.5 µM on MATE1 (hek293) and at MATE2-K (hek293) was under 2 each time. As for `CN/C(=N/CCSCc1nc[nH]c1C)NC#N` [CIMETIDINE], the uptake ratio at 1 min, 2.5 µM at MATE1 (hek293) and on MATE2-K (hek293) was over 2 each time. Consider `CC(C)(C)NCC(O)c1ccc(O)c(O)c1` (configuration not stated) [COLTEROL], for which the uptake ratio at 1 min, 2.5 µM on MATE1 (HEK293 cells expressing MATE1) and on MATE2-K (setting [1]) was over 2 in each case. As to `CN(CC(=O)O)C(=N)N` [CREATINE], the uptake ratio at 1 min, 2.5 µM on MATE1 (HEK293 cells expressing MATE1) and at MATE2-K (setting [1]) was under 2 each time.

With `CC1(C)N=C(N)N=C(N)N1c1ccc(Cl)cc1` [CYCLOGUANIL], the uptake ratio at 1 min, 2.5 µM at MATE1 (HEK293 cells expressing MATE1) and at MATE2-K (setting [1]) was over 2 in each case. `O=c1cccc2n1C[C@@H]1CNC[C@H]2C1` [CYTISINICLINE]: the uptake ratio at 1 min, 2.5 µM on MATE1 (hek293) is over 2; on MATE2-K (hek293) it was under 2. As for `NC(N)=Nc1nc(CSCCC(N)=NS(N)(=O)=O)cs1` [FAMOTIDINE], at MATE2-K (hek293), the uptake ratio at 1 min, 2.5 µM is over 2.

For the origin of these results see ChEMBL document CHEMBL6182944, “Substrate Specificity of the Organic Cation Transporters MATE1 and MATE2K and Functional Overlap with OCT1 and OCT2” (J Med Chem, 2025).
